Patent US20260224486A1, “DIANHYDROHEXITOL BASED IONIZABLE LIPIDS FOR NUCLEIC ACID DELIVERY” (SANOFI PASTEUR INC., priority 2023, published 2026)

Legend:
[1] = Lipid nanoparticle size and polydispersity index by dynamic light scattering (Malvern Zetasizer); type: physicochemical; conditions: hEPO mRNA LNP, Process A, Cationic Lipid:DMG-PEG2000:Cholesterol:DOPE 40:1.5:28.5:30 mol %, N/P 4
Description: The lipid nanoparticles in the examples of the present invention were formulated using Process A of WO 2018/089801 (see, e.g., Example 1 and FIG. 1 of WO 2018/089801). Process A (“A”) relates to a conventional method of encapsulating mRNA by mixing mRNA with a mixture of lipids, without first pre-forming the lipids into lipid nanoparticles. In an exemplary process, an ethanolic solution of a mixture of lipids (cationic lipid, phosphatidylethanolamine, cholesterol, and polyethylene glycol-lipid) at a fixed lipid to mRNA ratio were combined with an aqueous buffered solution of target mRNA at an acidic pH under controlled conditions to yield a suspension of uniform LNPs. After ultrafiltration and diafiltration into a suitable diluent system, the resulting nanoparticle suspensions were diluted to final concentration, filtered, and stored frozen at −80° C. until use.
(§1) Lipid nanoparticle formulations of Table 1 were prepared by Process A. All of the lipid nanoparticle formulations comprised hEPO mRNA and the different lipids (Cationic Lipid: DMG-PEG2000: Cholesterol: DOPE) in mol % ratios of 40:1.5:28.5:30 (Cationic Lipid: DMG-PEG2000: Cholesterol: DOPE).
The Polydispersity Index (Pdl) of lipid nanoparticles can be determined by diluting the formulation in 10% trehalose at about 0.1 mg/ml mRNA concentration and then measuring the size on Malvern zetasizer. The lipid nanoparticle size can be obtained with Malvern Zetasizer Nano-ZS.
Dynamic light scattering (DLS) measurements were performed using a Malvern Instruments Zetasizer with a backscattering detector angle of 173° and a 4-mW, 633-nm He—Ne laser (Worcestershire, UK). The samples were analyzed by diluting in 10% Trehalose and measuring the size and Poly dispersity Index (PDI) in an optical grade polystyrene cuvette.

[2] = mRNA encapsulation efficiency of lipid nanoparticles (RiboGreen assay); type: physicochemical; conditions: hEPO mRNA LNP, Process A, Cationic Lipid:DMG-PEG2000:Cholesterol:DOPE 40:1.5:28.5:30 mol %, N/P 4
Description: In embodiments, the lipid nanoparticle encapsulates a nucleic acid, optionally an mRNA encoding a peptide or protein. In embodiments, the lipid nanoparticle encapsulates an mRNA encoding a peptide or protein, optionally for use in a vaccine. In embodiments, the peptide is an antigen. As used herein, the phrase “encapsulation percentage” refers to the fraction of therapeutic agent (e.g. mRNA) that is effectively encapsulated within a liposomal-based vehicle (e.g. a lipid nanoparticle) relative to the initial fraction of therapeutic agent present in the lipid phase. In embodiments, the lipid nanoparticles have an encapsulation percentage for mRNA of at least 50%. In embodiments, the lipid nanoparticles have an encapsulation percentage for mRNA of at least 55%. In embodiments, the lipid nanoparticles have an encapsulation percentage for mRNA of at least 60%. In embodiments, the lipid nanoparticles have an encapsulation percentage for mRNA of at least 65%. In embodiments, the lipid nanoparticles have an encapsulation percentage for mRNA of at least 70%. In embodiments, the lipid nanoparticles have an encapsulation percentage for mRNA of at least 75%. In embodiments, the lipid nanoparticles have an encapsulation percentage for mRNA of at least 80%. In embodiments, the lipid nanoparticles have an encapsulation percentage for mRNA of at least 85%. In embodiments, the lipid nanoparticles have an encapsulation percentage for mRNA of at least 90%. In embodiments, the lipid nanoparticles have an encapsulation percentage for mRNA of at least 95%. In embodiments, the encapsulation percentage is calculated by performing the Ribogreen assay (Invitrogen) with and without the presence of 0.1% Triton-X 100.
as §1
The RiboGreen Assay is a fluorescence-based method for the determination of mRNA concentration (Total and Free) and % encapsulation using Quant-iT™ RiboGreen® RNA reagent in mRNA containing lipid nanoparticles.
• To each of the standards (Blank, mRNA-1, mRNA-2. mRNA-3, mRNA-4, mRNA-5) and Samples (free mRNA and total mRNA), add 1.0 mL of 200-fold Ribogreen Reagent Solution and gently mix by inversion. This is a 2× Dilution. • Add 200 μL of each standard and sample in triplicate using the reverse pipetting technique in a 96-well Costar Black with Clear Background Plate. Ensure no bubbles are present in the plate before the fluorescence reading. • Read the fluorescence signal using the below instrument parameters: • Read Type: Fluorescence, Bottom Read • Excitation: 485 nm; Cut-off: 515 nm; Emission: 530 nm • Plate Type: 96-well Costar Black with Clear Background
The average fluorescence from each calibration standard is plotted against the concentration to generate a linear calibration curve using the MS Excel software. The coefficient of determination (R^2) of calibration curve must be R^2>0.99.
[formula] • Where, • Y=average fluorescence value • m: slope • x: concentration (pg/mL) • c: y-intercept • Using the linear equation, calculate the concentration of free and total mRNA concentration in the test sample by replacing the y value in the equation with the average fluorescence value of each respective sample • Once the concentration is determined, the actual concentration in the sample can be back-calculated by multiplying the concentration in the test sample with the dilution factor (DF) as follows:
[formula] [formula] • Concentration of encapsulated mRNA can be determined by subtracting the concentration of free mRNA from the total mRNA. • % Encapsulation can then be calculated by taking the ratio of encapsulated mRNA over total mRNA and multiplying the result with 100.

BALB/cJ mice = assay: Delivery of hEPO mRNA by intramuscular administration of LNPs; serum hEPO by ELISA; type: in vivo, Mouse; conditions: for hEPO 6 Hr (ng/mL) Mean: Table 3, isomannide-derived lipids
Method: In summary, lipid screening studies were conducted with female BALB/cJ mice 6-8 weeks of age. Mice were dosed with 0.1 μg in 30 μL of LNPs by a single intramuscular (IM) injection into the gastrocnemius leg muscle. Blood samples were taken 6 and 24 hours post injection and hEPO levels were measured in the blood serum of the mice using an ELISA assay according to the manufacture's protocol.
Treatment Regimen: On Day 1, animals from Groups 1-33 were dosed via intramuscular injection while under light isoflurane anesthesia according to the study design table above. Animals in Groups 1-33 were injected with EPO mRNA LNPs in the right leg only. Groups 1 and 17 animals received MC3 control.
Interim Sample Collections: Interim whole blood (^~50 μL) was collected by tail snip or saphenous vein at 6 and 24 hours post dose administration (±5%). Blood samples were collected into serum separator tubes, allowed to clot at room temperature for at least 10 minutes, centrifuged at ambient temperature at minimum 1000 g for 10 minutes and the serum was extracted. All serum samples were stored at nominally −70° C. until analysis hEPO by the Testing Facility. The results of the EPO analysis were included in the Data Submission.
Terminal Blood Collections: Whole blood was collected via cardiac puncture into serum separator tube, allowed to clot at room temperature for at least 10 minutes, centrifuged at ambient temperature at minimum 1000 g for 10 minutes and the serum was extracted. Serum samples were stored at nominally −70° C. until analyzed for hEPO by the Test Facility.
ELISA Assay: Human erythropoietin (hEPO) levels in sera samples were determined by ELISA kit (R&D systems, Cat #DEP-00) according to the manufactory instruction and the results were included in the Data Submission. The “shaker” protocol was used. The serum samples were diluted between 1:40 and 1:100.

[3] = Table 2, isosorbide-derived lipids, mouse serum 6 hours post single IM injection of 0.1 μg hEPO mRNA LNP
[4] = mouse serum 6 hours post single IM injection of 0.1 μg hEPO mRNA LNP

SMILES | Polydispersity Index (PDI) [1] | Size (nm) [1] [nm] | Encapsulation efficiency (EE) % [2] [%] | hEPO 6 Hr (ng/ml) Mean (BALB/cJ mice; [3]) [ng/mL] | hEPO 24 Hr (ng/ml) Mean (BALB/cJ mice; Table 2, isosorbide-derived lipids, mouse serum 24 hours post single IM injection of 0.1 μg hEPO mRNA LNP) [ng/mL] | hEPO 6 Hr (ng/mL) Mean (BALB/cJ mice; [4]) [ng/mL] | hEPO 6 Hr (ng/ml) Mean (BALB/cJ mice; Table 4, further lipids, mouse serum 6 hours post IM injection of hEPO mRNA LNP as in example 3) [ng/mL]
CCCCCCCCCCC(O)CN(CCCOC(=O)O[C@H]1CO[C@H]2[C@@H]1OC[C@H]2OC(=O)OCCCN(CC(O)CCCCCCCCCC)CC(O)CCCCCCCCCC)CC(O)CCCCCCCCCC (stereo partly shown) [Compound 40] | 0.11 | 84 | 66 | 11.9 | 7 | – | –
CCCCCCCCCCCCCCCCC(O)CN(CCCCC(=O)O[C@@H]1CO[C@H]2[C@@H]1OC[C@H]2OC(=O)CCCCN(CC(O)CCCCCCCCCCCCCCCC)CC(O)CCCCCCCCCCCCCCCC)CC(O)CCCCCCCCCCCCCCCC (stereo partly shown) [Compound 31] | 0.12 | 98 | 97 | 14.1 | – | – | –
CCCCCCCCCCCOC(=O)CCCC(O)CN(CCCC(=O)O[C@H]1CO[C@H]2[C@@H]1OC[C@H]2OC(=O)CCCN(CC(O)CCCCCC(=O)OC(CCCCCCCC)CCCCCCCC)CC(O)CCCC(=O)OCCCCCCCCCCC)CC(O)CCCCCC(=O)OC(CCCCCCCC)CCCCCCCC (stereo partly shown) [Compound 33] | 0.11 | 109 | 99 | 17.6 | – | – | –
CCCCCCCCCCC(O)CN(CCCC(=O)O[C@H]1CO[C@H]2[C@@H]1OC[C@H]2OC(=O)CCCN(CC(O)CCCCCCCC)CC(O)CCCCCCCC)CC(O)CCCCCCCCCC (stereo partly shown) [Compound 22] | 0.1 | 75 | 91 | 34.1 | – | – | –
CCCCCCCCC(O)CN(CCCCC(=O)O[C@@H]1CO[C@H]2[C@@H]1OC[C@H]2OC(=O)CCCCN(CC(O)CCCCCCCC)CC(O)CCCCCCCC)CC(O)CCCCCCCC (stereo partly shown) [Compound 2] | 0.16 | 77 | 68 | – | – | 36.3 | –
CCCCCCCCCCC(O)CN(CCCC(=O)O[C@H]1CO[C@H]2[C@@H]1OC[C@H]2OC(=O)CCCN(CC(O)CCCCCCCCCC)CC(O)CCCCCCCCCC)CC(O)CCCCCCCCCC (stereo partly shown) [Compound 29] | 0.13 | 126 | 96 | 38.4 | – | – | –
CCCCCCCCCCCCC(O)CN(CCCOC(=O)N[C@H]1CO[C@H]2[C@@H]1OC[C@@H]2NC(=O)OCCCN(CC(O)CCCCCCCCCCCC)CC(O)CCCCCCCCCCCC)CC(O)CCCCCCCCCCCC (stereo partly shown) [Compound 53] | 0.2 | 97 | 96 | – | – | – | 72.0
CCCCCCCCCCCCCCCCC(O)CN(CCCC(=O)O[C@H]1CO[C@H]2[C@@H]1OC[C@H]2OC(=O)CCCN(CC(O)CCCCCCCCCCCCCCCC)CC(O)CCCCCCCCCCCCCCCC)CC(O)CCCCCCCCCCCCCCCC (stereo partly shown) [Compound 30] | 0.16 | 106 | 94 | 25.2 | – | – | –
CCCCCCCCC(O)CN(CCCC(=O)O[C@@H]1CO[C@H]2[C@@H]1OC[C@H]2OC(=O)CCCN(CC(O)CCCCCCCC)CC(O)CCCCCCCC)CC(O)CCCCCCCC (stereo partly shown) [Compound 1] | 0.14 | 93 | 85 | – | – | 42.5 | –
CCCCCC/C=C\COC(=O)CCCCCC(O)CN(CCCC(=O)O[C@H]1CO[C@H]2[C@@H]1OC[C@H]2OC(=O)CCCN(CC(O)CCCCCC(=O)OC/C=C\CCCCCC)CC(O)CCCCCC(=O)OC/C=C\CCCCCC)CC(O)CCCCCC(=O)OC/C=C\CCCCCC (stereo partly shown) [Compound 35] | 0.08 | 92 | 82 | 28.5 | – | – | –
CCCCCC/C=C\COC(=O)CCCCCC(O)CN(CCCC(=O)O[C@@H]1CO[C@H]2[C@@H]1OC[C@@H]2SC(=O)CCCN(CC(O)CCCCCCCCCC)CC(O)CCCCCCCCCC)CC(O)CCCCCC(=O)OC/C=C\CCCCCC (stereo partly shown) [Compound 34] | 0.1 | 84 | 92 | 33.8 | – | – | –
CCCCCCCCC(O)CN(CCCC(=O)O[C@H]1CO[C@H]2[C@@H]1OC[C@H]2OC(=O)CCCN(CC(O)CCCCCCCC)CC(O)CCCCCCCC)CC(O)CCCCCCCC (stereo partly shown) [Compound 20] | 0.13 | 95 | 89 | 25.2 | – | – | –
